Experimental data published in PubChem BioAssay (NCI).
Values joined by “and” are separate entries in the source; they are usually repeats but may differ in a detail not shown here. Identical values can stand only once.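 Grown in 96-well plates, cells were treated for 48 hours with each compound at five concentrations. Insufficient inhibition: endpoint recorded as highest concentration tested. Here, GI50 denotes the concentration required for 50% inhibition of growth. TGI denotes the concentration required for complete inhibition of growth.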

Experiments:
Assay in all cases: NCI anticancer screen, dose series, 48 h
MALME-3M melanoma = system: MALME-3M melanoma
NCI-H226 lung = system: NCI-H226 lung
HCC-2998 colon = system: HCC-2998 colon
CAKI-1 renal = system: CAKI-1 renal
SN12C renal = system: SN12C renal
SK-MEL-5 melanoma = system: SK-MEL-5 melanoma
NCI-H23 lung = system: NCI-H23 lung
HL-60(TB) leukemia = system: HL-60(TB) leukemia
A549 NSCLC = system: A549 NSCLC
SK-MEL-28 melanoma = system: SK-MEL-28 melanoma

SMILES | TGI (MALME-3M melanoma) | TGI (NCI-H226 lung) | TGI (HCC-2998 colon) | TGI (CAKI-1 renal) [nM] | TGI (SN12C renal) | TGI (SK-MEL-5 melanoma) | TGI (NCI-H23 lung) | TGI (HL-60(TB) leukemia) | TGI (A549 NSCLC) | TGI (SK-MEL-28 melanoma) | GI50 (MALME-3M melanoma) | GI50 (NCI-H226 lung) | GI50 (HCC-2998 colon) | GI50 (CAKI-1 renal) | GI50 (SN12C renal) | GI50 (SK-MEL-5 melanoma) | GI50 (NCI-H23 lung) | GI50 (HL-60(TB) leukemia) | GI50 (A549 NSCLC) | GI50 (SK-MEL-28 melanoma)
CC(=O)N/C(=C\c1cccc([N+](=O)[O-])c1)c1nc2c3c(ccc2[nH]1)C(=O)c1ccccc1C3=O | > 100000 nM | > 100000 nM | > 100000 nM | > 100000 | > 100000 nM | > 100000 nM | > 100000 nM | 59800 nM | > 100000 nM | > 100000 nM | – | – | – | – | – | – | – | – | – | –
CC1(C)CCC[C@@]2(C)C1CC[C@H]1CC(O)C3(C)CCC12C3 (some centres not stated) | 30700 nM | 34300 nM | 34100 nM | 32000 | 30700 nM | 31400 nM | 32800 nM | 51200 nM | 37400 nM | 33700 nM | – | – | – | – | – | – | – | – | – | –
C[C@@H]1N=C(c2ccc(Br)cc2)Nc2nc3ccccn3c2C1=O | > 100000 nM | > 100000 nM | > 100000 nM | > 100000 | > 100000 nM | 40500 nM | > 100000 nM | > 100000 nM | > 100000 nM | > 100000 nM | 15200 nM | 14700 nM | 21900 nM | 3090 nM | 17600 nM | 2240 nM | 25400 nM | 6490 nM | 6700 nM | 9510 nM
O=c1[nH]ccc2nc(N3CCC(O)CC3)nc(Nc3cccc(C(F)(F)F)c3)c12 | 7870 nM | 17700 nM | 38400 nM | 6300 | > 100000 nM | 2500 nM | 13900 nM | 5060 nM | > 100000 nM | 17400 nM | 2610 nM | 3200 nM | 11200 nM | 282 nM | 4070 nM | 1230 nM | 3240 nM | 863 nM | 3830 nM | 4630 nM
Cn1nc(-c2ccccc2)nc1[N+](=O)[O-] | > 10000 nM | > 10000 nM | > 10000 nM | > 10000 | > 10000 nM | > 10000 nM | > 10000 nM | > 10000 nM | > 10000 nM | > 10000 nM | – | – | – | – | – | – | – | – | – | –
Nc1cc(-c2cccc(OC(F)(F)F)c2)nc2ccc(N3CCCC3)cc12 | – | > 100000 nM | – | > 100000 | 19700 nM and > 100000 nM | 621 nM and 670 nM and 361 nM | 43100 nM and > 100000 nM | 88.8 nM and 71.2 nM and 320 nM | 18600 nM and > 100000 nM | – | 265 nM and 299 nM and 246 nM | 238 nM and 237 nM | 37 nM and 35.1 nM and 37.1 nM | 51.5 nM and 48.9 nM and 41.7 nM | 113 nM and 71.6 nM and 69.2 nM | 42 nM and 39.4 nM and 34.8 nM | 71.6 nM and 80.3 nM and 60.9 nM | 30.3 nM and 24.9 nM and 24.8 nM | 137 nM and 85.2 nM and 83.6 nM | 1460 nM and 3070 nM and 3910 nM
Cc1cccc(Cl)c1NC(=O)/C=C/c1ccccc1 | > 100000 nM | > 100000 nM | > 100000 nM | > 100000 | > 100000 nM | > 100000 nM | > 100000 nM | > 100000 nM | > 100000 nM | > 100000 nM | – | – | – | – | – | – | – | – | – | –
COc1ccc2c(CN3CCC[C@H]3C(=O)O)cc3cc4c(cc3c2c1)OCO4 | 17700 nM | > 100000 nM | 33700 nM | 88600 | 73200 nM | 34200 nM | – | 67800 nM | > 100000 nM | 36800 nM | 2590 nM | 17000 nM | 14500 nM | 25000 nM | 6040 nM | 12200 nM | – | 22900 nM | 21500 nM | 15500 nM
CN(C)C1CCN(C(=O)c2ccc(NC(=O)Nc3ccc(-c4nc(N5CCOCC5)nc(N5CCOCC5)n4)cc3)cc2)CC1 | 53 nM and 240 nM and 54 nM | 380 nM and 1950 nM and 257 nM | 839 nM and 2500 nM and 1030 nM | – | 13100 nM and 2500 nM and > 10000 nM | 323 nM and 2180 nM | 15700 nM and 2500 nM and 2300 nM | > 20400 nM and 2500 nM and 8910 nM | 232 nM and 360 nM and 1020 nM | 245 nM and 248 nM and 144 nM | 13.8 nM and 38.2 nM and 8.99 nM | – | 11.8 nM and 24 nM and 10.2 nM | 4160 nM and 1490 nM and 496 nM | < 12.9 nM and 13.3 nM and 20.8 nM | 61.3 nM and 548 nM | 36.8 nM and 29.7 nM and 73.2 nM | 244 nM and 45.7 nM and 52.6 nM | 13.2 nM and 18.3 nM and 41.7 nM | 23.1 nM and 39.2 nM and 15.9 nM
C=C[C@H]1CCC/C=C/[C@@H]2C[C@H](O)C[C@H]2[C@H](O)/C=C/C(=O)O1 | 1890 nM | 28.9 nM | – | > 100000 | > 100000 nM | 23.8 nM | 6000 nM | 234 nM | > 100000 nM | 404 nM | 34 nM | < 12.5 nM | 31.6 nM | 35 nM | 37.4 nM | < 12.9 nM | 39.3 nM | 34.7 nM | 41.5 nM | 21.3 nM
CC[O-].CC[O-].O=C1C(c2ccccc2)=C([O-])c2ccccc21.O=C1C(c2ccccc2)=C([O-])c2ccccc21.[Ti+4] | > 100000 nM | > 100000 nM | > 100000 nM | > 100000 | > 100000 nM | > 100000 nM | > 100000 nM | > 100000 nM | > 100000 nM | > 100000 nM | > 100000 nM | > 100000 nM | > 100000 nM | > 100000 nM | > 100000 nM | > 100000 nM | > 100000 nM | > 100000 nM | > 100000 nM | > 100000 nM
COc1ccc(C(=O)OC2C=COC(C)C2OC(=O)c2ccc(OC)cc2)cc1 (configuration not stated) | > 47100 nM | > 100000 nM | > 100000 nM | > 100000 | > 64500 nM | 32100 nM | 36100 nM | 38000 nM | > 100000 nM | 33200 nM | – | – | – | – | – | – | – | – | – | –
COc1cc2c(cc1OCCCCCCN1CCN(c3ncnc4ccccc34)CC1)N=CC1CCCN1C2=O (configuration not stated) | 376 nM | 330 nM | 520 nM | 436 | 6470 nM | 287 nM | 677 nM | – | 5550 nM | 510 nM | 158 nM | 125 nM | 191 nM | 33.1 nM | 155 nM | 139 nM | 204 nM | 78.2 nM | 275 nM | 193 nM
COc1cc2c(Oc3ccc4[nH]c(C)cc4c3F)ccnc2cc1OCC1(N)CC1 | 3030 nM | 14900 nM | 11800 nM | 6990 | 7560 nM | 2240 nM | – | 1950 nM | – | 2950 nM | 1210 nM | 894 nM | 2360 nM | 1040 nM | 1780 nM | 967 nM | – | 382 nM | – | 1410 nM
